row,melting point [°C],SMILES
1,197 to 199,CCc1cccc(CC)c1NC(=O)C(C)Br (stereo not given)
2,122 to 123,O=C1CCCN1C(=O)Oc1ccc([N+](=O)[O-])cc1
3,138 to 140,CC(C)C(C)(C(N)=O)N1C(=O)C=CC1=O (stereo not given)
4,181 to 182,Cc1oc(-c2ccc(C(C)C)cc2)nc1CCOc1ccc(C[C@H](OCC(F)(F)F)C(=O)O)c2sccc12
5,99,O=S(=O)(c1ccc(Cl)cc1)N1CCCC1c1cccc(Cl)c1 (racemic)
6,93 to 94,COCCOC(=O)N1c2cc(Cl)ccc2NC(=O)[C@@H]1C
7,74 to 76,COc1ccc(C)c2nc(Cl)c(C(C)C)cc12
8,56 to 60,C=C(C)C=COCC1CCn2c(nc3ccccc32)S1 (stereo not given)
9,131 to 133,CC(C)NC1=NS(=O)(=O)c2ccc(C3CCCCC3)cc2N1
10,114 to 120,COc1cccc2c(CCCCN(CC3CC3)C3COc4c(F)ccc(C(N)=O)c4C3)coc12 (stereo not given)
11,196 to 201,CCCCOCCOc1ccc(-c2ccc3c(c2)C=C(C(=O)O)CCN3C(=O)CNC(C)=O)cc1
12,151 to 153,CC(C)(C)OC(=O)N1CCc2cc(OCc3ccccc3)c(OCc3ccccc3)cc2C1Cc1ccc(NC(=O)c2ccccc2)c(I)c1 (stereo not given)
13,132 to 134,CCC(COC)Nc1nc(C)nc2c1nnn2-c1ccc(C(C)C)cc1Br (stereo not given)
14,87.9 to 89,COCCCNS(=O)(=O)NC(=O)OCCCc1ccc(OCCOC)cc1Oc1ncc(Cl)cc1Cl
15,91 to 117,CC(C)C(=NO)c1ccc(Cl)cc1
16,153,CC(=O)N[C@@H](C)COc1ccc2nc(-c3cc(F)c(OCC4CC4)cc3F)oc2c1F
17,299 to 301,Cc1nn(-c2cc3nc(S)sc3cc2F)c(=O)n1C
18,72,Cc1c(-c2cc(C(=O)OC(C)C)c(Cl)cc2F)nn(C)c1C(F)(F)F
19,213 to 216,O=C1c2ccc3cc(C(=O)N4CCN(Cc5ccccc5)CC4)cnc3c2N=CC1[N+](=O)[O-] (stereo not given)

row,melting point [°C],SMILES
1,78 to 80,CC(=O)Oc1ccc(Cn2ccnc2SC(C)=O)cc1F
2,202 to 204,COc1cc2c(cc1C(F)(F)F)N(C(=O)Nc1ccc(Oc3cccnc3)nc1)CC2
3,128 to 130,COc1ccccc1N1CCN(C(=O)N(C)c2nc3ccccc3nc2OC)CC1
4,169 to 170,Cc1nc(-n2cnn(CC3CC3)c2=O)sc1C(=O)NCc1ccncc1
5,247 to 249,Cc1nc2ccccc2cc1NC(=O)N1CCN(c2cc(Cl)cc(Cl)c2)CC1
6,125,CN1C(=O)N(c2cc(Cl)cc(Cl)c2)C(=O)[C@]12CN(c1ccc(Cl)nn1)C[C@H]2c1ccc(C#N)cc1 (relative stereo)
7,91 to 93,CCOC(=O)c1cc(OCC)c(OC(C)C)cc1N
8,188 to 189,COc1cc2ncnc(N3CCN(C(=O)NCc4cccnc4)CC3)c2cc1OC
9,208,O=Cc1ccc(C=CC(=O)N2CCc3c([nH]c4ccccc34)C2c2ccc3c(c2)OCO3)cc1 (stereo not given)
10,87 to 89,CCOC(=O)C1=C(C)NC(C)=C(C(=O)OCCN2CCN(C(c3ccccc3)c3ccccc3)CC2)C1c1cccc(Cl)c1Cl (stereo not given)
11,140 to 142,CC1=NN(CC(C)C)S(=O)(=O)c2sc(S(N)(=O)=O)cc21
12,199 to 202,CNc1nc(Cl)c(Cl)c(N2CCN(CC[C@H]3CC[C@H](NC(=O)OC(C)(C)C)CC3)CC2)n1
13,255 to 257,N#Cc1ccc(-c2cnc3[nH]c(=O)n(CC4CCCCC4)c3n2)cc1
14,210 to 212,CC12CCC(O)CC1CCC1C2CCC2(C)C(C(O)CO)CCC12 (stereo not given)
15,218,CC(C)NC(=S)N1CCc2[nH]cnc2C1C1CCCCC1 (stereo not given)
16,189 to 191,CC(=O)N1CC(=O)NC(=Cc2ccc(OCc3ccccc3)cn2)C1=O
17,229,CCCc1ccc(OC)c(-c2csc(NC(=O)NN3CCN(CCCN4CCOCC4)CC3)n2)c1
18,259 to 261,Oc1ncc(-c2cccc(F)c2)cn1

# The next lines start with the compound.
row,SMILES,melting point [°C]
1,CCOC(=O)Oc1ccc(/C=C/C(=O)O)cc1,173 to 176
2,O=c1[nH]c2ccccc2c(=O)cc1N(CCO)CCO,204 to 205
3,Cc1cc(OCCCCCl)cc(-c2ccc(F)cc2)n1,59 to 61
4,O=C(O)c1ccc(CNC(=O)C2Cc3ccccc3N2S(=O)(=O)c2ccc(-c3ccc(F)cc3Cl)cc2)cc1 (stereo not given),111 to 124
5,CNC(=O)CNC(=O)c1ccc(C)c(-n2c(C)cc(OCc3ccccc3CNC(=O)Nc3cc(C(C)(C)C)nn3-c3ccc(O)c(Cl)c3)c(Cl)c2=O)c1,209 to 211
6,O=C(Nc1ccc2[nH]c(CO)cc2c1)c1cc2ccccc2o1,164 to 165
7,CCCc1nc(C(C)(C)O)c(C(=O)OCc2oc(=O)oc2C)n1Cc1ccc(-c2ccccc2C(=O)O)cc1,90 to 93
8,C#CC(C)(C)Oc1ccc(-c2ccnc(C)c2)cc1,37 to 40
9,COc1ccc(CCCC(=O)Nc2c(C)c(C)c3c(c2C)C(c2ccc(C)cc2)C(C)(C)O3)cc1 (stereo not given),166 to 167
10,O=c1c2cccnc2c(-c2cccc(Cl)c2)nn1Cc1ccsc1,165 to 166
11,CN(C)CC#Cc1ccc2c(Nc3ccc(Cl)cc3Cl)c(C#N)cnc2c1,144 to 145
12,Cc1cccc(C#Cc2cccc(C#N)c2)n1,120 to 123
13,COc1ccccc1COc1ccc(S(=O)(=O)c2ccc(C)nc2Nc2ccc(OC(F)F)cc2Cl)cc1,124 to 125
14,COc1cc(CO)cc(OC)c1OCc1nc(-c2ccccc2)oc1C,113 to 114
15,O=S(=O)(c1cccc(C(F)(F)F)c1)c1cc(Br)nc(Br)c1,156 to 158
16,C[Si](C)(C)OC(Cn1ccnc1)(Cn1cncn1)c1ccc(Cl)cc1Cl (stereo not given),82 to 85
17,CC(C)C(=O)NC1CCc2c(c3cc(-c4ccccn4)ccc3n2Cc2cccc(F)c2)C1 (stereo not given),228 to 230
18,CCCOc1c(C=O)c(=O)n(C)c(=O)n1C,57 to 58
19,O=C(O)c1ccc2c(=O)n3c(nc2c1)C(=Cc1ccccc1)CC3,382 to 384
20,ClC(Cl)=NC(Cl)(Cl)C(Cl)(Cl)N=C(Cl)Cl,167

row,SMILES,melting point [°C]
1,Cc1ccc(C(=O)NC(NC(=S)Nc2cccc(F)c2)C(F)(F)F)cc1 (stereo not given),205 to 206
2,CCOC(=O)c1ncn2c1[C@@H]1CCN1C(=O)c1c-2ccc(F)c1Cl,161 to 163
3,CCOP(=O)(/C=C/c1cn(-c2ccccc2)nc1OCc1ccc(OCc2nc(-c3ccc(C(N)=O)cc3)oc2C)c(OC)c1)OCC,146 to 148
4,CCCCN(CC)c1cc(C)nc(Oc2c(C)cc(Cl)cc2C)c1C,177 to 178
5,C=C1CC2(C)C(=O)CC(O)C2C2CCC3=CC(=O)CCC3C12 (stereo not given),237
6,COC1(c2ccc(C=Cc3cc(F)cc(F)c3NC(=O)C(C)(C)C)cc2)CCOCC1,77 to 79
7,COc1cc(CBr)ccc1-c1ccccc1,187 to 189
8,O=[N+]([O-])C1NC=CN1c1ccncc1 (stereo not given),234
9,Cn1ccc(C(Cl)Cl)n1,38.5 to 40
10,COC(=O)CC[C@H](NC(=O)OC(C)(C)C)C(=O)O,74 to 77
11,CCCCc1c(/C=C/C(=O)O)cc(OC)c2ccccc12,166 to 167
12,CC(=O)Cc1nc(/C=C/c2cccc(Cl)c2F)no1,75 to 77
13,O=C(O)C=Cc1cccc(Sc2c[nH]c3ccccc23)c1,165 to 167
14,Cc1ccccc1NC(=O)C=CC=CC1(F)CC1c1ccc(Br)c(Br)c1 (stereo not given),174 to 176
15,CCCN(Cc1ccc(-c2ccccc2-c2nc(=O)o[nH]2)cc1)c1nn(C)cc1C(=O)OCC,182 to 183
16,CCOP(=O)(Cc1ccc2cc(CP(=O)(OCC)OCC)ccc2c1)OCC,151 to 153
17,O=C1c2cc(Cl)c(Cl)cc2C(=O)c2c1c(Cl)c1cc(Cl)c(Cl)cc1c2Cl,> 260
18,Cc1cc(-c2nc3c(C)cc(Cl)nn3c2-c2ccnc(N)c2)ccc1F,218 to 219
19,CC(C)(C)OC(=O)Nc1ccc(-c2ccc(OCc3ccccc3)nc2)cc1N,176 to 177
20,CN1C(=O)C2(COc3cc4c(cc32)OCCO4)c2c(-c3ccoc3)cccc21 (stereo not given),178 to 180

row,SMILES,melting point [°C]
1,COc1cc(COc2nn(-c3ccccc3)cc2CC(=O)O)ccc1OCc1nc(-c2ccco2)oc1C,179 to 180
2,O=C(CCCC1(c2ccccc2)CC(O)=C(SCc2ccccc2)C(=O)O1)NCc1ccccc1 (stereo not given),48 to 52
3,Cc1nnc(CNC(=O)CNC(=O)CN2C(=O)c3ccccc3C2=O)n1-c1ccc(Cl)cc1C(=O)c1ccccc1Cl,269 to 270
4,CCCCc1nn(-c2cc(NC(=O)CC)ccc2C(F)(F)F)c(=O)n1Cc1ccc(-c2ccccc2S(=O)(=O)NC(=O)c2ccccc2Cl)cc1,102 to 105
5,CC(C(=O)O)c1cccc(C(=O)c2ccccc2)c1[N+](=O)[O-] (stereo not given),177 to 179
6,CC(CCNC1=Nc2cccc3cccc1c23)c1cccnc1 (stereo not given),160 to 163
7,CCCN(c1nc(-c2ccc(OC)cc2Cl)c(C)s1)c1cc(CO)ccc1OC,115
8,Nc1nc(Cl)nc2cnc(Oc3ccc(F)cc3F)cc12,> 300
9,Cc1nc2sccn2c(=O)c1C,112 to 113
10,CN1CCN(c2cc(Cl)cc3c2c(=O)n(Cc2cccc([N+](=O)[O-])c2)c(=O)n3Cc2ccccc2)CC1,200 to 205
11,ClCc1cc(-c2ccccc2)no1,69 to 70
12,N#Cc1nc(-c2c(Cl)cc(C(F)(F)F)cc2Cl)[nH]c1C#N,194 to 195
13,CC(C)(C)OC(=O)CC[C@H](NC(=O)c1ccc(N)cc1F)C(=O)OC(C)(C)C,91 to 95
14,COc1ccc(C(=O)Nc2ccc(F)cc2)cc1N,164 to 167
15,Cc1cc(SC2=C(O)CC(CCc3ccncc3)(C(C)C)OC2=O)c(C(C)(C)C)cc1CO (stereo not given),140 to 155
16,COc1ccc(-c2ocnc2-c2cc(OC)c(OC(F)(F)F)c(OC)c2)cc1N,168 to 170
17,CSc1nn2c(N)cc(C)nc2c1S(=O)(=O)c1ccc(C(C)(C)C)cc1,> 230
18,CCOP(=O)(CC(=O)Nc1cc2c(Nc3ccc(OCc4cccc(Cl)c4)c(Cl)c3)ncnc2cn1)OCC,106 to 109

# Reference: a melting point compilation (Tetko et al.; mined from patent text by program, amines drawn as free bases though some values may be those of a salt)
